Tests used:
Aspergillus niger [1] = assay: Antifungal activity against Aspergillus niger at 100 ug/ml after 48 hr by agar well diffusion method; format: functional; settings: read-out: IZ
Klebsiella aerogenes [2] = assay: Antibacterial activity against Enterobacter aerogenes NCIM 5139 at 100 ug/ml after 18 to 24 hr by agar well diffusion method; format: functional; settings: read-out: IZ
Escherichia coli [3] = assay: Antibacterial activity against Escherichia coli ATCC 2343 at 100 ug/ml after 18 to 24 hr by agar well diffusion method; format: functional; settings: read-out: IZ
Staphylococcus aureus [4] = assay: Antibacterial activity against Staphylococcus aureus ATCC 29737 at 100 ug/ml after 18 to 24 hr by agar well diffusion method; format: functional; settings: read-out: IZ
Bacillus subtilis [5] = assay: Antibacterial activity against Bacillus subtilis ATCC 6633 at 100 ug/ml after 18 to 24 hr by agar well diffusion method; format: functional; settings: read-out: IZ
Candida albicans [6] = assay: Antifungal activity against Candida albicans at 100 ug/ml after 48 hr by agar well diffusion method; format: functional; settings: read-out: IZ
Klebsiella aerogenes [7] = assay: Antibacterial activity against Enterobacter aerogenes NCIM 5139 at 40 ug/ml after 18 to 24 hr by agar well diffusion method; format: functional; settings: read-out: IZ
Staphylococcus aureus [8] = assay: microbe, parasite or virus in culture; settings: ATCC 29737, read-out: IZ
Description: Antibacterial activity against Staphylococcus aureus ATCC 29737 at 40 ug/ml after 18 to 24 hr by agar well diffusion method

Escherichia coli [9] = assay: microbe, parasite or virus in culture; settings: ATCC 2343, read-out: IZ
Description: Antibacterial activity against Escherichia coli ATCC 2343 at 40 ug/ml after 18 to 24 hr by agar well diffusion method

Bacillus subtilis [10] = assay: microbe, parasite or virus in culture; settings: ATCC 6633, read-out: IZ
Description: Antibacterial activity against Bacillus subtilis ATCC 6633 at 40 ug/ml after 18 to 24 hr by agar well diffusion method

Candida albicans [11] = assay: Antifungal activity against Candida albicans at 30 ug/ml after 48 hr by agar well diffusion method; format: functional; settings: read-out: IZ
Aspergillus niger [12] = assay: Antifungal activity against Aspergillus niger at 30 ug/ml after 48 hr by agar well diffusion method; format: functional; settings: read-out: IZ

Structure (SMILES)	zone of inhibition at 100 µg/mL (Aspergillus niger [1]) [mm]	zone of inhibition at 100 µg/mL (Klebsiella aerogenes [2]) [mm]	zone of inhibition at 100 µg/mL (Escherichia coli [3]) [mm]	zone of inhibition at 100 µg/mL (Staphylococcus aureus [4]) [mm]	zone of inhibition at 100 µg/mL (Bacillus subtilis [5]) [mm]	zone of inhibition at 100 µg/mL (Candida albicans [6]) [mm]	zone of inhibition at 40 µg/mL (Klebsiella aerogenes [7]) [mm]	zone of inhibition at 40 µg/mL (Staphylococcus aureus [8]) [mm]	zone of inhibition at 40 µg/mL (Escherichia coli [9]) [mm]	zone of inhibition at 40 µg/mL (Bacillus subtilis [10]) [mm]	zone of inhibition at 30 µg/mL (Candida albicans [11]) [mm]	zone of inhibition at 30 µg/mL (Aspergillus niger [12]) [mm]
CCOC(=O)/C(=C/c1ccc(Cl)cc1)Cn1nnn(-c2ccc(C(F)(F)F)cc2)c1=O	9	11	9	15	15							
COC(=O)/C(=C/c1ccc([N+](=O)[O-])cc1)Cn1nnn(-c2ccc(OC)cc2)c1=O		8	6	12	10							
COC(=O)/C(=C/c1ccc([N+](=O)[O-])cc1)Cn1nnn(-c2ccc(C(F)(F)F)cc2)c1=O	11	8	6	12	10	12						
COC(=O)/C(=C/c1ccc(OC)cc1)Cn1nnn(-c2ccc(OC)cc2)c1=O	16			17	16	17						
COC(=O)/C(=C/c1ccc(OC)c(OC)c1)Cn1nnn(-c2ccc(OC)cc2)c1=O		17	9									
COc1ccc(-n2nnn(C/C(C#N)=C/c3ccccc3)c2=O)cc1	6	11	7	17	12	9						
N#C/C(=C\c1ccccc1)Cn1nnn(-c2ccc(C(F)(F)F)cc2)c1=O	16	19	9	22	23	15						
N#C/C(=C\c1ccc(Cl)cc1)Cn1nnn(-c2ccc(C(F)(F)F)cc2)c1=O	5	14	7	13	7							
Cc1ccc(/C=C(\C#N)Cn2nnn(-c3ccccc3)c2=O)cc1	4	14	8	17	16	7						
COc1ccc(-n2nnn(C/C(C#N)=C/c3ccc(C)cc3)c2=O)cc1	15	16	14	19	16	19						
Cc1ccc(/C=C(\C#N)Cn2nnn(-c3ccc(C(F)(F)F)cc3)c2=O)cc1		6	3									
COc1ccc(/C=C(\C#N)Cn2nnn(-c3ccc(OC)cc3)c2=O)cc1	14	19	14	21	18	16						
COc1ccc(/C=C(\C#N)Cn2nnn(-c3ccc(C(F)(F)F)cc3)c2=O)cc1	11	12	5	16	11	16						
COc1ccc(-n2nnn(C/C(C#N)=C/c3ccc(OC)c(OC)c3)c2=O)cc1		16	7	21	11	4						
COc1ccc(/C=C(\C#N)Cn2nnn(-c3ccc(C(F)(F)F)cc3)c2=O)cc1OC	10	12	7	16	14	16						
COC(=O)/C(=C/c1ccc(F)cc1)Cn1nnn(-c2ccccc2)c1=O	3	3	4	7	6							
COC(=O)/C(=C/c1ccc(F)cc1)Cn1nnn(-c2ccc(OC)cc2)c1=O	18	15	18	15	19	17						
COC(=O)/C(=C/c1ccc(Cl)cc1)Cn1nnn(-c2ccc(OC)cc2)c1=O		6	5	7	14	5						
CCOC(=O)/C(=C/c1ccc(Cl)cc1)Cn1nnn(-c2ccc(OC)cc2)c1=O	11			22	20	12						
CCOC(=O)/C(=C/c1ccc(Cl)cc1)Cn1nnn(-c2ccccc2)c1=O	16	17	19	23	20	18						
O=C(O)c1cn(C2CC2)c2cc(N3CCNCC3)c(F)cc2c1=O [CIPROFLOXACIN]							24	22	18	10		
CCC(C)n1ncn(-c2ccc(N3CCN(c4ccc(OCC5COC(Cn6cncn6)(c6ccc(Cl)cc6Cl)O5)cc4)CC3)cc2)c1=O (configuration not stated) [ITRACONAZOLE]											20	17
